Results taken from PubChem BioAssay (NCI).
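Grown in 96-well plates, cells were treated for 48 hours with each compound at five concentrations. Insufficient inhibition: endpoint recorded as highest concentration tested. GI50 = concentration required for 50% inhibition of growth. TGI is the concentration that stops growth completely.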

What was measured:
Experiment in all cases: NCI anticancer screen, dose series, 48 h
MDA-MB-231 breast = test system: MDA-MB-231 breast
MCF7 breast = test system: MCF7 breast
LOX IMVI melanoma = test system: LOX IMVI melanoma
PC-3 prostate = test system: PC-3 prostate
OVCAR-5 ovarian = test system: OVCAR-5 ovarian
HCT-15 colon = test system: HCT-15 colon
UO-31 renal = test system: UO-31 renal
DU-145 prostate = test system: DU-145 prostate
SF-539 CNS = test system: SF-539 CNS
T-47D breast = test system: T-47D breast

SMILES	GI50 (MDA-MB-231 breast) [µM]	TGI (MDA-MB-231 breast) [µM]	GI50 (MCF7 breast) [µM]	TGI (MCF7 breast) [µM]	GI50 (LOX IMVI melanoma) [µM]	TGI (LOX IMVI melanoma) [µM]	GI50 (PC-3 prostate) [µM]	TGI (PC-3 prostate) [µM]	GI50 (OVCAR-5 ovarian) [µM]	TGI (OVCAR-5 ovarian) [µM]	GI50 (HCT-15 colon) [µM]	TGI (HCT-15 colon) [µM]	GI50 (UO-31 renal) [µM]	TGI (UO-31 renal) [µM]	GI50 (DU-145 prostate) [µM]	TGI (DU-145 prostate) [µM]	GI50 (SF-539 CNS) [µM]	TGI (SF-539 CNS) [µM]	GI50 (T-47D breast) [µM]	TGI (T-47D breast) [µM]
O=C(/C=C/c1ccccc1O)c1ccccc1	12.8	29.9	1.34	5.69	2.09	5.11	7.13	41.6	15.3	31.1	10.6	24.7	1.68	15.7	5.86	18.7	15.4	34.1	14.7	64.5
CNC(=O)c1cc(Oc2ccc3nc(NC(=O)c4cc(C(F)(F)F)cc(C(F)(F)F)c4)sc3c2)ccn1	2.88	6.63	3.37	18	3.39	15.1	2.53	12.8	4.23	25	3.97	25.1	2.19	8.95	3.69	15.9	3.14	14.8	3.04	9.17
O=Cc1ncc(-c2ccc(C(F)(F)F)cc2)c(NC2CCCCCC2)n1	> 10	> 10	> 10	> 10	> 10	> 10	> 10	> 10	> 10	> 10	> 10	> 10	> 10	> 10	> 10	> 10	> 10	> 10	> 10	> 10
CCOc1ccc(/C=N/Nc2cc(C)nc3ccc(Cl)cc23)cc1	1.83	3.38	1.67	3.32	1.73	3.14	1.51	3.14	1.97	3.5	1.55	2.94	1.63	2.98	1.82	3.38	1.97	3.4	1.94	3.8
Nc1nn(C(=O)Nc2ccc(Cc3ccccc3)cc2)c2ccc(Cl)cc12	9.48	50.2	0.422	18	0.137	20.1	2.87	> 66.5	22.7	> 100	0.0821	> 100	5.9	82.7	11.7	33.8	1.29	7.66	0.0957	28.8
O=[n+]1cnn([O-])c2ccccc21	–	31	–	44.4	–	> 100	–	> 100	–	> 100	–	35.6	–	94.4	–	> 100	–	55.7	–	29.7
O=C(c1ccc(F)c(F)c1Nc1ccc(I)cc1F)N1CC(O)([C@H]2CCCCN2)C1	0.579	5.26	6.56	21.3	1.05	5.49	9.68	22.3	0.914	15.5	4.81	19.3	1.42	13.9	9.76	22.3	10.2	22.8	11.6	26
C[C@H]1O[C@@H](O[C@H]2[C@@H](O)C[C@H](O[C@H]3[C@@H](O)C[C@H](O[C@H]4CC[C@]5(C)C6C[C@@H](O)[C@]7(C)[C@@H](C8=CC(=O)OC8)CC[C@]7(O)C6CC[C@@H]5C4)O[C@@H]3C)O[C@@H]2C)C[C@H](O)[C@@H]1O (stereo not given in full)	0.265	1.32	0.0521	1.69	0.06	0.141	0.0573	0.783	0.114	0.286	0.128	0.366	0.0836	0.166	0.0329	0.0968	0.0648	0.139	0.0833	0.252
O=C1OCC2=C1C(c1ccccc1)c1cc3c(cc1N2CCO)CCC3 (stereo not given)	0.689	> 25	0.0841	> 25	0.176	> 25	0.0986	> 25	0.203	> 25	0.103	> 25	0.117	> 20.1	0.0778	0.464	0.0732	0.966	0.0922	> 25
CCc1ccc(/C(C#N)=C/C=C/c2ccccc2)cc1	5.84	> 76.7	1.14	> 100	10.5	> 100	3.15	> 100	7.06	> 100	0.897	> 83.9	19.2	> 100	4.22	> 48.4	1.52	4.69	2.4	> 100
